We go through 4 molecules from patent US10550099B2 (FORMA Therapeutics, Inc., priority 2014, dated 2020).

SMILES strings stand for the structures. Read-outs that look alike come from different tables or passages of the source. A value given as a limit tells only on which side of the number the result lay.

Assay [1] deals with IDH1-R132H recombinant protein (Homo sapiens (Human), UniProt O75874, R132H). Description: IDH1-R132H enzymatic assay (diaphorase/resazurin readout of NADPH consumption). To be noted: IDH1-R132H enzyme; read-out: Enzyme IDH1 R132H IC50 (Range). It is filed as biochemical. The procedure:
(§1) Assays were performed in a 384-well black plate. An aliquot of 250 nL of compound was incubated with 10 μL of 30 nM IDH1-R132H or 10 nM IDH1-R132C recombinant protein in assay buffer (50 mM Tris pH=7.5, 150 mM NaCl, 5 mM MgCl2, 0.1% (w/v) Bovine Serum Albumin, and 0.01% Triton X-100) in each well at 25° C. for 15 minutes. After the plate was centrifuged briefly, an aliquot of 10 μL of 2 mM α-ketoglutarate and 20 μM NADPH solution prepared in assay buffer was then added to each well and the reaction was maintained at 25° C. for 45 minutes. An aliquot of 10 μL of diaphorase solution (0.15 U/mL diaphorase and 30 μM Resazurin in assay buffer) was added to each well. The plate was maintained at 25° C. for 15 minutes and then read on a plate reader with excitation and emission wavelengths at 535 nm and 590 nm, respectively. The IC50 of a given compound was calculated by fitting the dose response curve of inhibition of NADPH consumption at a given concentration with the four parameter logistic equation.

For assay [2], the target named is IDH1-R132C recombinant protein (Homo sapiens (Human), UniProt O75874, R132C). Kind of assay: IDH1-R132C enzymatic assay (diaphorase/resazurin readout of NADPH consumption). The settings on record: IDH1-R132C enzyme; read-out: Enzyme IDH1 R132C IC50 (Range). It is filed as biochemical. The protocol: as §1
Assay [3] relates to HCT116 isogenic IDH1-R132H mutant cells. Description: Cellular 2-HG assay using HCT116 mutant IDH1 cells (IDH1-R132H), RapidFire mass spectrometry. The format is cell-based. The protocol: (§2) Example 106—Cellular 2-HG Assay Using HCT116 Mutant IDH1 Cells
(§3) HCT116 isogenic IDH1-R132H and IDH1-R132C mutant cells were cultured in growth media (McCoy's 5A, 10% fetal bovine serum, 1× antibiotic-antimycotic solution and 0.3 mg/mL G418) in 5% CO2 in an incubator at 37° C. To prepare the assay, cells were trypsinized and resuspended in assay media (McCoy's 5A with no L-glutamine, 10% fetal bovine serum, 1× antibiotic-antimycotic solution and 0.3 mg/mL G418). An aliquot of 10,000 cells/100 μL was transferred to each well of a clear 96-well tissue culture plate. The cells were incubated in 5% CO2 at 37° C. in an incubator overnight to allow for proper cell attachment. An aliquot of 50 μL of compound containing assay media were then added to each well and the assay plate was kept in 5% CO2 at 37° C. in an incubator for 24 hours. The media was then removed from each well and 150 μL of a methanol/water mixture (80/20 v/v) was added to each well. The plates were kept at −80° C. freezer overnight to allow for complete cell lysis. An aliquot of 125 μL of extracted supernatant was analyzed by RapidFire high-throughout-mass spectrometry (Agilent) to determine the cellular 2-HG level. The IC50 of a given compound was calculated by fitting the dose response curve of cellular 2-HG inhibition at a given concentration with the four parameter logistic equation.

Assay [4] relates to HCT116 isogenic IDH1-R132C mutant cells. Kind of assay: Cellular 2-HG assay using HCT116 mutant IDH1 cells (IDH1-R132C), RapidFire mass spectrometry. The format is cell-based. The procedure: as §2, §3
The mark [5] stands for this setting: Homo sapiens, HCT-116, read-out: HCT116 IDH1 R132H IC50 (Range).
Setting [6] is: Homo sapiens, HCT-116, read-out: HCT116 IDH1 R132C IC50 (Range).

Chain of IDH1-R132H recombinant protein (O75874 whole entry R132H): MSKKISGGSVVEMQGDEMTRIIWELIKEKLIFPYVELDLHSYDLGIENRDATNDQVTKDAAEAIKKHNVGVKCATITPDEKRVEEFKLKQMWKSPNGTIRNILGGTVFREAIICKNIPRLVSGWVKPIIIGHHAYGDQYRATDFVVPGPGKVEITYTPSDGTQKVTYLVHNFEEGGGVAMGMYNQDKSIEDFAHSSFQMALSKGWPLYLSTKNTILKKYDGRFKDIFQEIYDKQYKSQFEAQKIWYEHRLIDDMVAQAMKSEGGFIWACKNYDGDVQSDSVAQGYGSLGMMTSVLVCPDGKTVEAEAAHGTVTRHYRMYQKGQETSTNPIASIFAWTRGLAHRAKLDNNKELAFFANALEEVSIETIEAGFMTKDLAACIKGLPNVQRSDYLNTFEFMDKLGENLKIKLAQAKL
Chain of IDH1-R132C recombinant protein (O75874 whole entry R132C): as the sequence (O75874 whole entry R132H) above, with H132C counted along it

On to `COc1nc(N[C@H](C)c2nc3cc(Cl)ccc3[nH]c2=O)ncc1C#N` [I-157], for which the IC50 in assay [1] is 0.1 to 1 µM; in assay [2], 1 to 10 µM; in assay [3] (read-out: HCT116 IDH1 R132H IC50 (Range)), less than 0.1 µM; in assay [4] (read-out: HCT116 IDH1 R132C IC50 (Range)), 0.1 to 1 µM.

Regarding `COC(=O)C(c1ccnc(N[C@@H](C)c2cc3cc(Cl)ccc3[nH]c2=O)n1)S(C)(=O)=O` (stereo partly shown) [I-134], the IC50 in assay [2] was more than 10 µM.

For the molecule `Cc1[nH]ncc1-c1ccnc(N[C@@H](C)c2cc3cc(Cl)ccc3[nH]c2=O)n1` [I-83], the concentration for half-maximal inhibition (IC50) in assay [1] fell in the range of 0.1 to 1 µM; in assay [2], 1 to 10 µM; in assay [3] (setting [5]), 1 to 10 µM; in assay [4] (setting [6]), 0.1 to 1 µM.

Take `CC(C)Cn1nccc1-c1ccnc(N[C@@H](C)c2cc3cc(Cl)ccc3[nH]c2=O)n1` [I-85]: the IC50 in assay [1], in assay [2], in assay [3] (setting [5]) and in assay [4] (setting [6]) was 0.1 to 1 µM in each case.
